Assay results as given in patent US20070237818A1, “Controlled-release formulation of HCV protease inhibitor and methods using the same” (priority 2005, published 2007).

Key:
[1] = test system: melanoma A375 tumors; conditions: melanoma A375 tumors implanted into the left ventricle of the heart; cited from earlier work
[2] = solubility in water / aqueous systems; type: physicochemical
[3] = test system: hepatitis-C virus; test: mean viral load over time in HCV infected patients (FIG. 1); type: in vivo; conditions: various doses and regimens
Description: Thus, in one aspect of the invention, the one or more discrete dosages are adjusted in amount to provide a highest dose or doses at a time or times corresponding to the time interval when replication of the hepatitis-C virus is highest.

Structure (SMILES) | distant bone metastasis to the femur and tibia [1] | solubility [2] [µg/mL] | viral load over time [3]
CN(C)C(=O)[C@H](Cc1ccccc1)NC(=O)[C@H]1O[C@@H]1C(=O)NCCc1ccccn1 [CLIK-148] | reduced |  | 
CC(C)(C)NC(=O)N[C@H](C(=O)N1C[C@H]2[C@@H]([C@H]1C(=O)NC(CC1CCC1)C(=O)C(N)=O)C2(C)C)C(C)(C)C (stereo partly drawn) [Formula Ia, (1R,5S)—N-[3-Amino-1-(Cyclobutylmethyl)-2,3-Dioxopropyl]-3-[2(S)-[[[(1,1-Dimethylethyl)Amino]Carbonyl]Amino]-3,3-Dimethyl-1-Oxobutyl]-6,6-Dimethyl-3-Azabicyclo[3.1.0]Hexan-2(S)-Carboxamide] |  | ~600 | decline in viral load is cyclical
